This is an account of results in patent publication US10202412B2, “β-D-2′-deoxy-2′-substituted-4′-substituted-2-substituted-N6-substituted-6-aminopurinenucleotides for the treatment of paramyxovirus and orthomyxovirus infections” (Atea Pharmaceuticals, Inc., priority 2016, dated 2019).

Where only a bound is given, the exact number is not on record here.

Common to all, as to assay type: cell-based
The test system of data set [1] is Differentiated normal human bronchial epithelial (dNHBE) cells. The experiment in a line: dNHBE assay: toxicity evaluated microscopically. On the set-up: unit not given here. As to the method: (§1) Differentiated normal human bronchial epithelial (dNHBE) cells were grown on 6 mm mesh disks in transwell inserts to approximately 1.2×10^6 cells/disk and disks were transferred to individual wells of a 6-well plate. 1 mL of proprietary culture medium was added to the basolateral side of the cells and the apical side was exposed to a humidified 95% air/5% CO2 environment. Cells were cultured at 37° C. for one day and then the mucin layer was removed from the apical side of the cells by repeated (3×) washing with 500 μL 30 mM HEPES buffered saline solution and culture medium on the basal side was replenished.
(§2) Various concentrations of test compounds in medium were applied in duplicate to the apical (140 μL) and basal sides (1 mL) for a 1 hour pre-treatment, followed by addition of 140 μL of virus inoculum to each cell insert on the apical side. The viral inoculum and treatments were removed after 2 hours. Control cells were treated with placebo (culture medium only). Following infection, the apical medium was removed and the basal side was replaced with fresh compound in medium. The cells were maintained at the air-liquid interface, and cell culture medium on the basal side was replaced daily with fresh medium containing test compound. After 4 days, the liquid was removed from the basal side and discarded and virus released into the apical compartment was harvested by the addition of 500 μL of culture medium. The medium was thoroughly mixed, then removed, diluted 1:1 with 40% sucrose and stored at ≤−80° C.
(§3) Concentrations of test compounds that reduced virus yield by 1 log10 (90% effective concentration; EC90) were calculated by regression analysis. The reported EC90 value is the mean of at least two experiments. Potential toxicity of the test compounds was evaluated microscopically.

The subject of data set [2] is respiratory syncytial virus A2 (ATCC VR-1540). Description: Cytopathic effect assay with RSV A2 in MA-104 cells. The note with it: human respiratory syncytial virus, MA104, CPE inhibition, neutral red. As to the method:
Test compounds were dissolved in DMSO and then prepared in eight half-log dilutions in MEM medium with 50 μg/mL gentamicin and 2% FBS (MA-104 cells only). Each dilution was added to 5 wells of a 96-well plate with 80-100% confluent cells (either MA-104 cells or HEp-2 cells). Three wells of each dilution were infected with respiratory syncytial virus A2 (ATCC VR-1540) and two wells remained uninfected as toxicity controls. After maximum cytopathic effect (CPE) was observed microscopically in untreated virus control wells, plates were stained with neutral red dye for approximately 2 hours, then supernatant dye was removed and the incorporated dye was extracted in 50:50 Sorensen citrate buffer/ethanol and read on a spectrophotometer. Optical density values were normalized based on cell and virus controls, then the concentration of test compound required to inhibit CPE by 50% (EC50) was calculated by regression analysis. The reported EC50 value is the mean of at least two experiments. The concentration of compound that caused 50% CPE in the absence of virus was similarly calculated to determine cytotoxicity (CC50).

For data set [3], the system named is Respiratory syncytial virus (RSV) type A, strain A2 (ATCC VR-1540). The experiment in a line: dNHBE assay: RSV virus yield reduction (EC90). The settings on record: human respiratory syncytial virus, RSV (A2) in dNHBE cells; concentration reducing virus yield by 1 log10; mean of at least two experiments. As for the experimental part:
as §1
Respiratory syncytial virus (RSV) type A, strain A2 (ATCC VR-1540), previously passaged in MA-104 cells to make working stock cultures, was diluted 1/10 in medium before infection, using a multiplicity of infection (MOI) of ≤0.03 CCID50 per cell.
as §2
To determine the virus titer from each treated cell culture, MA-104 cells were seeded in 96-well plates and grown overnight (37° C.) to confluence. Samples containing virus were diluted in 10-fold increments in infection medium and 200 μL of each dilution transferred into respective wells of a 96-well microtiter plate. Four microwells were used for each dilution to determine 50% viral endpoints. After 7 days of incubation, each well was scored positive for virus if any cytopathic effect was observed as compared with the uninfected control. The virus dose that was able to infect 50% of the cell cultures (CCID50 per 0.1 mL) was calculated by the Reed-Muench method. This was repeated in duplicate for each test sample, so that values reported are an average of 2 independent CCID5o determinations. Untreated, uninfected cell controls were tested as negative controls. Statistical differences in the titers were evaluated with a one-way analysis of variance (ANOVA) followed by Dunnett's multiple comparisons test compared with the untreated virus controls.
as §3

In data set [4] the test system is human bone marrow progenitor cells (CFU-GM). Description: Human bone marrow progenitor cell assay, CFU-GM (GM-CSF-specific culture). The note with it: 14-day incubation, colony counts, read-out: Bone Marrow Stem Cell IC50 CFU-GM. As to the method:
(§4) Select compounds were tested in an in vitro selectivity study with human bone marrow progenitor cells. Fresh human bone marrow progenitor cells (Invitrogen) suspended in either BFU-E or GM-CSF-specific culture medium were added, at 10^5 cells/well, to triplicate serial dilutions of TA in 6-well plates. After 14-day incubations, colony counts were used to determine […] values. BFU-E colonies were confirmed using the benzidene technique. No cytotoxicity was observed from any of the tested compounds.

In data set [5] the test system is human bone marrow progenitor cells (BFU-E). The experiment in a line: Human bone marrow progenitor cell assay, BFU-E. The note with it: BFU-E-specific culture, 14-day incubation, colony counts; read-out: Bone Marrow Stem Cell IC50 BFU-E. As for the experimental part: as §4

Take `CC(C)OC(=O)[C@H](C)NP(=O)(OC[C@@]1(CCl)O[C@@H](n2ccc(N)nc2=O)[C@H](F)C1O)Oc1ccccc1` (stereo in doubt) [Z]: the Visual toxicity in data set [1] is >177. For the same compound, the EC50 in data set [2] was > 177 µM. In data set [3], this compound registered an EC90 of 2 µM.
Take `CN(C)c1nc(N)nc2c1ncn2[C@@H]1O[C@](C)(CO)[C@@H](O)[C@H]1F` [A, (2R,3R,4R,5R)-5-(2-Amino-6-(dimethylamino)-9H-purin-9-yl)-4-fluoro-2-(hydroxymethyl)-2-methyltetrahydrofuran-3-ol]: the Visual toxicity in data set [1] is listed as >306. Moreover, in data set [2], the concentration giving a half-maximal response (EC50) was > 306 µM. The compound further showed a concentration for an effect of 90% (EC90) in data set [3] of 142 µM.
In the case of `Cc1cn([C@H]2C[C@H](N=[N+]=[N-])[C@@H](CO)O2)c(=O)[nH]c1=O` [AZT, reference compound], the IC50 in data set [4] was determined as 4.56 µM; in data set [5] it was 2.59 µM.
Take `CC(C)OC(=O)[C@H](C)NP(=O)(OC[C@@]1(C)O[C@@H](n2cnc3c(N(C)C)nc(N)nc32)[C@H](F)[C@@H]1O)Oc1ccccc1` (stereo partly drawn) [B, (2S)-Isopropyl 2-(((((2R,3R,4R,5R)-5-(2-amino-6-(dimethylamino)-9H-purin-9-yl)-4-fluoro-3-hydroxy-2-methyltetrahydrofuran-2-yl)methoxy)(phenoxy)phosphoryl)-amino) propanoate]: the Visual toxicity in data set [1] was >167. Besides, in data set [2], the concentration giving a half-maximal response (EC50) is < 168 µM. In data set [3], the 90% effect level (EC90) was put at 5.9 µM.
As to `CC(C)OC(=O)[C@H](C)N[P@](=O)(OC[C@@]1(C)O[C@@H](n2cnc3c(N(C)C)nc(F)nc32)[C@H](F)[C@@H]1O)Oc1ccccc1` [Compound AD, (S)-Isopropyl 2-(((S)-(((2R,3R,4R,5R)-5-(6-(dimethylamino)-2-fluoro-9H-purin-9-yl)-4-fluoro-3-hydroxy-2-methyltetrahydrofuran-2-yl)methoxy)(phenoxy)phosphoryl)amino) propanoate], the Visual toxicity in data set [1] is listed as >16. In data set [3], this compound had an EC90 of 8.4 µM.
For `CC(C)OC(=O)[C@H](C)N[P@](=O)(OC[C@@]1(C)O[C@@H](n2cnc3c(N(C)C)nc(Cl)nc32)[C@H](F)[C@@H]1O)Oc1ccccc1` [Compound AE, (S)-Isopropyl 2-(((S)-(((2R,3R,4R,5R)-5-(6-(dimethylamino)-2-chloro-9H-purin-9-yl)-4-fluoro-3-hydroxy-2-methyltetrahydrofuran-2-yl)methoxy)(phenoxy)phosphoryl)amino) propanoate] the same measures were >16 and 9.3 µM.
Regarding `CN(C)c1nc(N)nc2c1ncn2[C@@H]1O[C@@](CO)(CCl)[C@@H](O)[C@H]1F` [Compound K, (2R,3R,4R,5R)-5-(2-Amino-6-(dimethylamino)-9H-purin-9-yl)-2-(chloromethyl)-4-fluoro-2-(hydroxymethyl)tetrahydrofuran-3-ol], in data set [1], the Visual toxicity is given as >277. In addition, the EC50 in data set [2] is > 225 µM. It took 74.8 µM to reach the 90% level in data set [3] (EC90).
For `CC(C)OC(=O)[C@H](C)NP(=O)(OC[C@@]1(CCl)O[C@@H](n2cnc3c(N(C)C)nc(N)nc32)[C@H](F)[C@@H]1O)Oc1ccccc1` (stereo partly drawn) [Compound L, (2S)-Isopropyl 2-(((((2R,3R,4R,5R)-5-(2-amino-6-(dimethylamino)-9H-purin-9-yl)-2-(chloromethyl)-4-fluoro-3-hydroxytetrahydrofuran-2-yl)methoxy)(phenoxy)phosphoryl)amino)propanoate], in that order: 158, > 159 µM and 13.5 µM.
Consider `CNc1nc(N)nc2c1ncn2[C@@H]1O[C@@](CO)(CCl)[C@@H](O)[C@H]1F` [Compound M, (2R,3R,4R,5R)-5-(2-Amino-6-(methylamino)-9H-purin-9-yl)-2-(chloromethyl)-4-fluoro-2-(hydroxymethyl)tetrahydrofuran-3-ol], for which the Visual toxicity in data set [1] is >288. This compound had an EC90 in data set [3] of 2.9 µM.
For `CNc1nc(N)nc2c1ncn2[C@@H]1O[C@](CCl)(COP(=O)(N[C@@H](C)C(=O)OC(C)C)Oc2ccccc2)[C@@H](O)[C@H]1F` (stereo partly drawn) [Compound N, (2S)-Isopropyl 2-(((((2R,3R,4R,5R)-5-(2-amino-6-(methylamino)-9H-purin-9-yl)-2-(chloromethyl)-4-fluoro-3-hydroxytetrahydrofuran-2-yl)methoxy)(phenoxy)-phosphoryl)amino)propanoate], in that order: >162 and 0.83 µM.
For `CC[C@]1(CO)O[C@@H](n2cnc3c(NC)nc(N)nc32)[C@H](F)[C@@H]1O` [Compound Q, (2R,3R,4R,5R)-5-(2-Amino-6-(methylamino)-9H-purin-9-yl)-2-ethyl-4-fluoro-2-(hydroxymethyl)tetrahydrofuran-3-ol] the same measures were >306 and 7.3 µM.
For `CC[C@]1(COP(=O)(N[C@@H](C)C(=O)OC(C)C)Oc2ccccc2)O[C@@H](n2cnc3c(NC)nc(N)nc32)[C@H](F)[C@@H]1O` (stereo partly drawn) [Compound R, (2S)-Isopropyl 2-(((((2R,3R,4R,5R)-5-(2-amino-6-(methylamino)-9H-purin-9-yl)-2-ethyl-4-fluoro-3-hydroxytetrahydrofuran-2-yl)methoxy)(phenoxy)-phosphoryl)amino) propanoate] the same measures were >167 and 2.3 µM.
In the case of `CN(C)c1nc(N)nc2c1ncn2[C@@H]1O[C@](C)(CO)[C@@H](O)[C@@H]1F` [Compound S], the Visual toxicity in data set [1] is >307. In data set [2], the EC50 is > 306 µM. Further, the concentration for an effect of 90% (EC90) in data set [3] is > 300 µM.
For `CC[C@]1(CO)O[C@@H](n2cnc3c(N(C)C)nc(N)nc32)[C@@H](F)[C@@H]1O` [Compound U, (2R,3R,4S,5R)-5-(2-Amino-6-(dimethylamino)-9H-purin-9-yl)-2-ethyl-4-fluoro-2-(hydroxymethyl)tetrahydrofuran-3-ol], in that order: >294, > 294 µM and > 294 µM.
For `CC[C@]1(COP(=O)(N[C@@H](C)C(=O)OC(C)C)Oc2ccccc2)O[C@@H](n2cnc3c(N(C)C)nc(N)nc32)[C@@H](F)[C@@H]1O` (stereo partly drawn) [Compound V, (2S)-Isopropyl 2-(((((2R,3R,4S,5R)-5-(2-amino-6-(dimethylamino)-9H-purin-9-yl)-2-ethyl-4-fluoro-3-hydroxytetrahydrofuran-2-yl)methoxy)(phenoxy)phosphoryl)-amino) propanoate] the same measures were 164, > 164 µM and 44.8 µM.
As for `CC(C)C(=O)Nc1nc(N(C)C)c2ncn([C@@H]3O[C@@](CO)(CCl)[C@@H](O)[C@H]3F)c2n1` [X], in data set [2], the EC50 is > 232 µM.
The same measure, in the same setting: then `CC(C)OC(=O)[C@H](C)NP(=O)(OC[C@@]1(CCl)O[C@@H](n2cnc3c(N(C)C)nc(NC(=O)C(C)C)nc32)[C@H](F)[C@@H]1O)Oc1ccccc1` (stereo partly shown) [Y], with > 142 µM.
